Test results as given in patent publication US20080139604A1, “Method of Treating Atherosclerosis, Dyslipidemias and Related Conditions” (priority 2005, published 2008).

Tested on: DP-independent nicotinic acid induced vasodilation
Assay: nicotinic acid induced vasodilation in mice genetically devoid of the DP receptor
Assay type: in vivo, mouse
Details: mice genetically devoid of the DP receptor (DP1), administration or pre-administration
Method: Thus, some portion of nicotinic acid induced vasodilation may not be dependent on the DP receptor. This DP-independent vasodilation can be inhibited by the administration or pre-administration of aspirin, a COX-1/COX-II inhibitor, to the mice. Human doses range from about 20-25 mg to as high as about 650 mg, administered about one hour to about 30 minutes before the administration of nicotinic acid, up to simultaneous administration, and repeated as necessary up to about every four hours. Thus a combination of DP receptor antagonist and aspirin is particularly effective to suppress nicotinic acid induced flushing in humans, attenuating some or all of the flushing that is not suppressed by the […] or by aspirin alone.

CC(=O)Oc1ccccc1C(=O)O [aspirin]
inhibition of DP-independent nicotinic acid induced vasodilation: inhibited
